# Reference: patent publication US10828276B2, “Combination therapeutics and methods for the treatment of neurodegenerative and other diseases” (APHIOS CORPORATION, priority 2012, dated 2020)
# Tests used:
# [1] = test system: Alzheimer's disease mediated memory loss; assay: Water maze studies in sweAPP/PS1 mice; format: in vivo, Mouse strain B6C3-Tg
# Excerpt: Mouse strain B6C3-Tg carrying mutant Swedish Amyloid precursor protein (sweAPP) and PS1 (presenilin-1) genes associated with early onset Alzheimer's disease were subjected to water maze tests at 5-6 months of age.
# [2] = test system: SH-SY5Y neuroblastoma cells; assay: sAPP-a release from SH-SY5Y cells (6E10 western blot, densitometry); format: cell-based
# Method: Cells were treated with RA, Bryostatin-1 (10^−9M)+RA, Bryostatin-1 (10^−10M), RA+Bryostatin-1 (10^−10M) for 3 h.
# ADAM10 = ADAM10 expression in SH-SY5Y cells; format: cell-based; conditions: single agents
# Excerpt: Therefore, Bryostatin-1 may increase […]-secretase processing through 2 independent mechanisms: (i) activation of PKCs which stimulate[…]secretase; and (ii) increased expression of […]-secretase.
smiles,measurement,setting,value
CCC/C=C/C=C/C(=O)O[C@H]1/C(=C/C(=O)OC)C[C@H]2C[C@H]([C@@H](C)O)OC(=O)C[C@H](O)C[C@@H]3C[C@H](OC(C)=O)C(C)(C)[C@](O)(C[C@@H]4C/C(=C/C(=O)OC)C[C@H](/C=C/C(C)(C)[C@]1(O)O2)O4)O3 [Bryostatin-1],protection against Alzheimer's disease mediated memory loss (water maze),"[1]; 5 micrograms/mouse on alternative days orally in an oil formulation, mice 5-6 months of age, vs control animals",significant protection
same,memory and cognition in AD model,[1]; our AD model,enhance memory and cognition
same,sAPP formation,[2]; 10^−9M Bryostatin-1 alone,increased
same,activity of alpha-secretase,[2]; SH-SY5Y neuroblastoma cells,potently stimulate
same,sAPPa recovered from culture medium compared to control,"[2]; single agents, RA 2 μM, Bryostatin-1 10^−10M, 3 h, p<0.05, p<0.01",significantly increased
same,expression of ADAM10,ADAM10,significantly increase
